Laboratory results: publication PMC4923583, “A Phase I/II Clinical Trial of Belinostat (PXD101) in Combination with Doxorubicin in Patients with Soft Tissue Sarcomas” (Sarcoma, 2016)
“And” between values parts separate entries of the source, which are not always exact repeats. Identical values can stand only once.

Assays:
[1] = Pharmacokinetic analyses, plasma, cycle 1 day 4 and day 5
Method: (§1) The following PK parameters were determined: elimination half-life (t 1/2), maximum concentration (C max), time to maximum concentration (t max), area under the curve (AUC0−tlast and AUC∞), elimination rate constant (λz), and volume of distribution (V c and V ss). Blood sampling for belinostat alone was performed on cycle 1 day 4 (before treatment and 0 min, 5 min, 15 min, 30 min, 1 h, 2 h, 2 h 15 min, 2 h 30 min, 3 h, 4 h, 6 h, 8 h, and 24 h after treatment).

[2] = test system: patients with STS and other solid tumours; test: Dose escalation: maximum tolerated dose (MTD) and dose limiting toxicities (DLT); assay type: in vivo; conditions: highest tested dose level (cohort 4)
Method: Belinostat was administered as a 30-minute intravenous infusion every 24 hours on days 1–5 and on day 5 in combination with doxorubicin, in a 3-week schedule, and doxorubicin was given after belinostat. The dose escalation schedule was as follows: belinostat 600 mg/m^2 and 50 mg/m^2 doxorubicin (cohort 1), 600 mg/m^2 and 75 mg/m^2 doxorubicin (cohort 2), 800 mg/m^2 and 75 mg/m^2 doxorubicin (cohort 3), and 1000 mg/m^2 and 75 mg/m^2 doxorubicin (cohort 4).
Patients who achieved clinical benefit from the treatment (objective response or stable disease) could continue belinostat treatment beyond cycle 6. If the maximum cumulative dose of doxorubicin 450 mg/m^2 was reached, the treatment would continue with belinostat as monotherapy. In the phase I part, at least 3 patients were treated at each dose level. If a DLT was found in one of 3 patients, the cohort was expanded to a total of 6 patients.
Adverse events were graded using the NCI common terminology criteria for adverse events (NCI-CTCAE) version 3.0. […]

[3] = test system: solid tumours and haematological neoplasms; set-up: method as in PMID 18245542, PMID 18510700; conditions: ref [10], [11], cited from earlier work
human tumour xenografts = conditions: cited from earlier work
[4] = in vivo
Method: as §1

soft tissue sarcoma = conditions: single-agent doxorubicin, ref [6], cited from earlier work

With `O=C(/C=C/c1cccc(S(=O)(=O)Nc2ccccc2)c1)NO` [belinostat] the clearance ([1]; 600 mg/m^2 Bel + 50 mg/m^2 doxorubicin, Day 5 (with doxorubicin), N: 1, individual parameter presented) was 1770 mL/min, the t last ([1]; Median (min–max), 600 mg/m^2 Bel + 50 mg/m^2 doxorubicin, Day 4 (Bel alone), N = 3) was 24.5 (22.4–24.6) h and the t last ([1]; Median (min–max), 600 mg/m^2 Bel + 50 mg/m^2 doxorubicin, Day 5 (with doxorubicin), N = 3) was 17.0 (17.0–20.1) h. The t last ([1]; Median (min–max), 600 mg/m^2 Bel + 75 mg/m^2 doxorubicin, Day 4 (Bel alone), N = 7) was 24.0 (8.55–24.5) h, the t last ([1]; Median (min–max), 600 mg/m^2 Bel + 75 mg/m^2 doxorubicin, Day 5 (with doxorubicin), N = 6) was 24.5 (16.2–24.7) h and the t last ([1]; Median (min–max), 800 mg/m^2 Bel + 75 mg/m^2 doxorubicin, Day 4 (Bel alone), N = 8) was 23.7 (8.47–24.6) h. The t last ([1]; Median (min–max), 800 mg/m^2 Bel + 75 mg/m^2 doxorubicin, Day 5 (with doxorubicin), N = 6) was 15.1 (8.50–24.6) h, the t last ([1]; Median (min–max), 1000 mg/m^2 Bel + 75 mg/m^2 doxorubicin, Day 4 (Bel alone), N = 21) was 8.65 (1.05–24.0) h and the t last ([1]; Median (min–max), 1000 mg/m^2 Bel + 75 mg/m^2 doxorubicin, Day 5 (with doxorubicin), N = 19) was 8.72 (8.50–24.7) h. The “Dose proportionality of pharmacokinetics” value ([1]; belinostat 600–1000 mg/m^2) was “dose-proportional pharmacokinetics”, the “Effect of coadministration of doxorubicin on belinostat exposure” value ([1]; day 5 vs day 4) was “no evidence that coadministration of doxorubicin had any effect” and the AUC(0-t) ([1]; human, plasma, intravenous, 600 mg/m^2, AUC0–tlast, 600 mg/m^2 Bel + 50 mg/m^2 doxorubicin, Day 4 (Bel alone), N = 3) was 10900 ng·h/mL. It also gave an AUC(0-t) ([1]; human, plasma, intravenous, 600 mg/m^2, AUC0–tlast, 600 mg/m^2 Bel + 75 mg/m^2 doxorubicin, Day 4 (Bel alone), N = 7) of 9670 ng·h/mL, a Cmax ([1]; human, plasma, intravenous, 600 mg/m^2, C max, 600 mg/m^2 Bel + 50 mg/m^2 doxorubicin, Day 4 (Bel alone), N = 3) of 21100 ng/mL and a Cmax ([1]; human, plasma, intravenous, 600 mg/m^2, C max, 600 mg/m^2 Bel + 75 mg/m^2 doxorubicin, Day 4 (Bel alone), N = 7) of 16800 ng/mL. It also gave a clearance ([1]; human, plasma, intravenous, 600 mg/m^2, CL, 600 mg/m^2 Bel + 75 mg/m^2 doxorubicin, Day 4 (Bel alone), N: 3) of 2150 mL/min, a Vd ([1]; human, plasma, intravenous, 600 mg/m^2, V ss, 600 mg/m^2 Bel + 75 mg/m^2 doxorubicin, Day 4 (Bel alone), N: 3) of 149 L and a half-life ([1]; human, plasma, intravenous, 600 mg/m^2, t 1/2, 600 mg/m^2 Bel + 75 mg/m^2 doxorubicin, Day 4 (Bel alone), N: 3) of 3.77 h. It also gave a Tmax ([1]; human, plasma, intravenous, 600 mg/m^2, t max, Median (min–max), 600 mg/m^2 Bel + 50 mg/m^2 doxorubicin, Day 4 (Bel alone), N = 3) of 0.533 h, a Tmax ([1]; human, plasma, intravenous, 600 mg/m^2, t max, Median (min–max), 600 mg/m^2 Bel + 75 mg/m^2 doxorubicin, Day 4 (Bel alone), N = 7) of 0.567 h and an AUC(0-t) ([1]; human, plasma, intravenous, 800 mg/m^2, AUC0–tlast, 800 mg/m^2 Bel + 75 mg/m^2 doxorubicin, Day 4 (Bel alone), N = 8) of 12200 ng·h/mL. The Cmax ([1]; human, plasma, intravenous, 800 mg/m^2, C max, 800 mg/m^2 Bel + 75 mg/m^2 doxorubicin, Day 4 (Bel alone), N = 8) was 21400 ng/mL, the clearance ([1]; human, plasma, intravenous, 800 mg/m^2, CL, 800 mg/m^2 Bel + 75 mg/m^2 doxorubicin, Day 4 (Bel alone), N: 4) was 2120 mL/min and the Vd ([1]; human, plasma, intravenous, 800 mg/m^2, V ss, 800 mg/m^2 Bel + 75 mg/m^2 doxorubicin, Day 4 (Bel alone), N: 4) was 107 L. The half-life ([1]; human, plasma, intravenous, 800 mg/m^2, t 1/2, 800 mg/m^2 Bel + 75 mg/m^2 doxorubicin, Day 4 (Bel alone), N: 4) was 1.91 h, the Tmax ([1]; human, plasma, intravenous, 800 mg/m^2, t max, Median (min–max), 800 mg/m^2 Bel + 75 mg/m^2 doxorubicin, Day 4 (Bel alone), N = 8) was 0.533 h and the half-life ([1]; human, plasma, intravenous, 1000 mg/m2, Geometric mean apparent elimination half-life (t 1/2), belinostat 600, 800 and 1000 mg/m^2, day 4 and day 5, range across groups) was 1.9 to 4.8 h. It also gave an AUC(0-t) ([1]; human, plasma, intravenous, 1000 mg/m^2, AUC0–tlast, 1000 mg/m^2 Bel + 75 mg/m^2 doxorubicin, Day 4 (Bel alone), N = 21) of 23100 ng·h/mL, a Cmax ([1]; human, plasma, intravenous, 1000 mg/m^2, C max, 1000 mg/m^2 Bel + 75 mg/m^2 doxorubicin, Day 4 (Bel alone), N = 21) of 41100 ng/mL and a clearance ([1]; human, plasma, intravenous, 1000 mg/m^2, CL, 1000 mg/m^2 Bel + 75 mg/m^2 doxorubicin, Day 4 (Bel alone), N: 18) of 1360 mL/min. The Vd ([1]; human, plasma, intravenous, 1000 mg/m^2, V ss, 1000 mg/m^2 Bel + 75 mg/m^2 doxorubicin, Day 4 (Bel alone), N: 18) was 51 L, the half-life ([1]; human, plasma, intravenous, 1000 mg/m^2, t 1/2, 1000 mg/m^2 Bel + 75 mg/m^2 doxorubicin, Day 4 (Bel alone), N: 18) was 1.48 h and the Tmax ([1]; human, plasma, intravenous, 1000 mg/m^2, t max, Median (min–max), 1000 mg/m^2 Bel + 75 mg/m^2 doxorubicin, Day 4 (Bel alone), N = 21) was 0.617 h. It also gave an AUC(0-t) ([1]; human, plasma, intravenous, AUC0–tlast, 600 mg/m^2 Bel + 50 mg/m^2 doxorubicin, Day 5 (with doxorubicin), N = 3) of 10400 ng·h/mL, an AUC(0-t) ([1]; human, plasma, intravenous, AUC0–tlast, 600 mg/m^2 Bel + 75 mg/m^2 doxorubicin, Day 5 (with doxorubicin), N = 6) of 10400 ng·h/mL and an AUC(0-t) ([1]; human, plasma, intravenous, AUC0–tlast, 800 mg/m^2 Bel + 75 mg/m^2 doxorubicin, Day 5 (with doxorubicin), N = 6) of 14600 ng·h/mL. It also gave an AUC(0-t) ([1]; human, plasma, intravenous, AUC0–tlast, 1000 mg/m^2 Bel + 75 mg/m^2 doxorubicin, Day 5 (with doxorubicin), N = 19) of 22100 ng·h/mL, a Cmax ([1]; human, plasma, intravenous, C max, 600 mg/m^2 Bel + 50 mg/m^2 doxorubicin, Day 5 (with doxorubicin), N = 3) of 18300 ng/mL and a Cmax ([1]; human, plasma, intravenous, C max, 600 mg/m^2 Bel + 75 mg/m^2 doxorubicin, Day 5 (with doxorubicin), N = 6) of 17400 ng/mL. The Cmax ([1]; human, plasma, intravenous, C max, 800 mg/m^2 Bel + 75 mg/m^2 doxorubicin, Day 5 (with doxorubicin), N = 6) was 26400 ng/mL, the Cmax ([1]; human, plasma, intravenous, C max, 1000 mg/m^2 Bel + 75 mg/m^2 doxorubicin, Day 5 (with doxorubicin), N = 19) was 37000 ng/mL and the clearance ([1]; human, plasma, intravenous, CL, 600 mg/m^2 Bel + 75 mg/m^2 doxorubicin, Day 5 (with doxorubicin), N: 3) was 1850 mL/min. It also gave a clearance ([1]; human, plasma, intravenous, CL, 800 mg/m^2 Bel + 75 mg/m^2 doxorubicin, Day 5 (with doxorubicin), N: 4) of 1520 mL/min, a clearance ([1]; human, plasma, intravenous, CL, 1000 mg/m^2 Bel + 75 mg/m^2 doxorubicin, Day 5 (with doxorubicin), N = 19) of 1420 mL/min and a Vd ([1]; human, plasma, intravenous, V ss, 600 mg/m^2 Bel + 50 mg/m^2 doxorubicin, Day 5 (with doxorubicin), N: 1, individual parameter presented) of 72.8 L. For the same molecule, the Vd ([1]; human, plasma, intravenous, V ss, 600 mg/m^2 Bel + 75 mg/m^2 doxorubicin, Day 5 (with doxorubicin), N: 3) was 90.8 L, the Vd ([1]; human, plasma, intravenous, V ss, 800 mg/m^2 Bel + 75 mg/m^2 doxorubicin, Day 5 (with doxorubicin), N: 4) was 58.3 L and the Vd ([1]; human, plasma, intravenous, V ss, 1000 mg/m^2 Bel + 75 mg/m^2 doxorubicin, Day 5 (with doxorubicin), N = 19) was 57.6 L. It also gave a half-life ([1]; human, plasma, intravenous, t 1/2, 600 mg/m^2 Bel + 50 mg/m^2 doxorubicin, Day 5 (with doxorubicin), N: 1, individual parameter presented) of 2.53 h, a half-life ([1]; human, plasma, intravenous, t 1/2, 600 mg/m^2 Bel + 75 mg/m^2 doxorubicin, Day 5 (with doxorubicin), N: 3) of 4.83 h and a half-life ([1]; human, plasma, intravenous, t 1/2, 800 mg/m^2 Bel + 75 mg/m^2 doxorubicin, Day 5 (with doxorubicin), N: 4) of 2.14 h. It also gave a half-life ([1]; human, plasma, intravenous, t 1/2, 1000 mg/m^2 Bel + 75 mg/m^2 doxorubicin, Day 5 (with doxorubicin), N = 19) of 2.13 h, a Tmax ([1]; human, plasma, intravenous, t max, Median (min–max), 600 mg/m^2 Bel + 50 mg/m^2 doxorubicin, Day 5 (with doxorubicin), N = 3) of 0.567 h and a Tmax ([1]; human, plasma, intravenous, t max, Median (min–max), 600 mg/m^2 Bel + 75 mg/m^2 doxorubicin, Day 5 (with doxorubicin), N = 6) of 0.517 h. For the same molecule, the Tmax ([1]; human, plasma, intravenous, t max, Median (min–max), 800 mg/m^2 Bel + 75 mg/m^2 doxorubicin, Day 5 (with doxorubicin), N = 6) was 0.533 h, the Tmax ([1]; human, plasma, intravenous, t max, Median (min–max), 1000 mg/m^2 Bel + 75 mg/m^2 doxorubicin, Day 5 (with doxorubicin), N = 19) was 0.633 h and the “MTD of belinostat in combination with doxorubicin” value ([2]; 30-minute IV infusion days 1–5, 3-week schedule, doxorubicin on day 5) was 1000 mg/m^2/d. For the same molecule, the “Maximum tolerated dose (MTD), monotherapy” value ([3]; 5 consecutive days repeated in a 3-week schedule) was 1000 mg/m^2/d, the “Duration of prolonged stable disease (SD) in 2 STS patients” value ([3]; belinostat monotherapy, one value per patient) was 7 months and 14 months and the “Toxicity to the host mice” value (human tumour xenografts; mouse, in vivo) was “without apparent toxicity”. The “Growth of human tumour xenografts” value (human tumour xenografts; ref [9]) was “inhibits growth”.
For `COc1cccc2c1C(=O)c1c(O)c3c(c(O)c1C2=O)C[C@@](O)(C(=O)CO)C[C@@H]3O[C@H]1C[C@H](N)[C@H](O)[C@H](C)O1` [doxorubicin], the half-life ([1]; human, plasma, intravenous) was 7.6 to 10.8 h, the Tmax ([1]; human, plasma, intravenous, 75 mg/m2, Median t max, doxorubicin 50 or 75 mg/m^2, day 5, range across groups) was 0.24 to 0.5 h and the “MTD of doxorubicin in combination with belinostat” value ([2]; day 5, 3-week schedule) was 75 mg/m^2. For the same molecule, the “Effect of coadministration of belinostat on doxorubicin exposure” value [4] was “no effect”, the “Neutropenia (all grades)” value (soft tissue sarcoma; G-CSF allowed) was 37% and the Response rate (soft tissue sarcoma) was 14%.
